Assay results from US20040096941A1, “Receptor for plant cell growth factor” (priority 2002, published 2004).
Square brackets hold non-standard residues; d marks the D form. Side chains are listed from the residue outwards. Ends that are not written are not given here. Peptide text beside a SMILES is read from it. sY = N[C@@H](Cc1ccc(OS(=O)(=O)O)cc1)C(=O)O; Ahx = NCCCCCC(=O)O

Columns and labels:
[1] = test system: transgenic carrot cells overexpressing the receptor protein (sense transformants); assay: callus growth of transgenic carrot cells in response to PSK; type: cell-based; conditions: 10 nM PSK, 3 weeks on B5 media with NAA 1.0 mg/liter and 6-BA 0.5 mg/liter
Procedure: The chimeric genes were composed of the receptor kinase ORF, in the sense or antisense orientation, under the control of the constitutive cauliflower mosaic virus 35S promoter incorporated within the binary vector pBI 121. Transformation of carrot hypocotyl segments and plant regeneration were performed following a protocol described elsewhere (M. Hardegger, A. Sturm, Mol. Breed. 4, 119 (1998)). Carrot cells transformed with the binary vector alone were used as controls. Analysis of variance of the growth data was carried out using the Student's t-test procedure of the Prism software (GraphPad Software).
The cDNA of the aforementioned protein was overexpressed in transgenic carrot cells, in sense orientation, under the control of the cauliflower mosaic virus 35S promoter. […] These phenotypes are consistent with the hypothesis that overexpression and antisense inhibition of this receptor protein alter the responsive property of carrot cells to PSK. FIGS. 6A to 6C show the callus growth of the sense transformants, the control cells, and antisense transformants exposed to 10 nM PSK, respectively. The transformed carrot cells and the control cells were cultured for 3 weeks on B5 media containing naphthaleneacetic acid (NAA, 1.0 mg/liter), 6-benzylamino purine (6-BA, 0.5 mg/liter), and 10 nM PSK. The scale bar in FIG. 6C represents 1 cm.

[2] = target: T1, PSK receptor (120-kD receptor kinase) (Daucus carota, UniProt Q8LPB4); assay: inhibition of [3H]PSK binding to the membrane fraction of the sense transformant by unlabelled competitors; parameters: species or system carrot; conditions: 6.3 nM [3H]PSK, 3.2 μM unlabelled competitor
T1 construct: The inserted portion (i.e., full length cDNA) in the positive phage was subcloned to pBS vector; expressed in transfected cells; host or cells: transgenic carrot cells (sense transformant, pBI121, CaMV 35S promoter); membrane fraction
T1 sequence (Q8LPB4 25-1021): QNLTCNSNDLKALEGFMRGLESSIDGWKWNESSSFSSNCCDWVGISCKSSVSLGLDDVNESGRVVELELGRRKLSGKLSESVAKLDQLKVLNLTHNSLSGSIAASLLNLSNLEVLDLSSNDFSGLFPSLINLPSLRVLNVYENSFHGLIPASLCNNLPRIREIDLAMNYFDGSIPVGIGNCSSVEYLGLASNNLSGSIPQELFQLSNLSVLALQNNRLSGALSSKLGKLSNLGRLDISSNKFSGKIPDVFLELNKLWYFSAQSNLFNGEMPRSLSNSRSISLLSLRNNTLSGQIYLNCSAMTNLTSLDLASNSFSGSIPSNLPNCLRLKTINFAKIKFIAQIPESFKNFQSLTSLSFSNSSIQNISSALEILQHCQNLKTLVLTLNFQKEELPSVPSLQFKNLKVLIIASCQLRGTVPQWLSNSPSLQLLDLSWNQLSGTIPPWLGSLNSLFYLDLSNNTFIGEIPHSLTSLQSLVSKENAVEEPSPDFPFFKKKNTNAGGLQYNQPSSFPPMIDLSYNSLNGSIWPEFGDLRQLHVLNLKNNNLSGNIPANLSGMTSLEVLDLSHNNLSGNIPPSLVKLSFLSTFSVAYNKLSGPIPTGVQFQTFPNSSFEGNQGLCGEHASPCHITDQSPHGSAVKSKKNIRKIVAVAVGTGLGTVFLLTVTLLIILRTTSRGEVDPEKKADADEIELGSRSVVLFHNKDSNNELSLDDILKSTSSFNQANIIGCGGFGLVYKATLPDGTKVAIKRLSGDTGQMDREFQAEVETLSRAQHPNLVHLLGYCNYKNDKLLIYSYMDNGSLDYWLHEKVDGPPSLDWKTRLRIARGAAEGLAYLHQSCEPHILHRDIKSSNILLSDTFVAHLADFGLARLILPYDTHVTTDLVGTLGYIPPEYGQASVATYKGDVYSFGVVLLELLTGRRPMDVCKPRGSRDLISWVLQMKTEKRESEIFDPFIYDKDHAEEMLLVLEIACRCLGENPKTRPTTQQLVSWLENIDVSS
Procedure: The specificity of the PSK binding activity was characterized by comparing the relative binding affinity for several PSK analogs. […] The membrane proteins were incubated in binding buffer containing 6.3 nM [^3H]PSK and 3.2 μM of the competitor .

[3] = target: T1, PSK receptor (120-kD receptor kinase); assay: specific binding of PSK to membrane fractions, Scatchard plot; parameters: species or system carrot
[4] = target: PSK receptor protein (120-kD receptor kinase of carrot) (carrot) (UniProt Q8LPB4); assay: [3H]PSK saturation binding to membrane fractions of control carrot cells (endogenous receptor), Scatchard plot
[5] = target: PSK receptor protein (120-kD receptor kinase of carrot) (carrot) (UniProt Q8LPB4); assay: [3H]PSK saturation binding to membrane fractions of sense transformants, Scatchard plot
[6] = target: T2, PSK receptor protein (120-kD receptor kinase of carrot) (carrot, UniProt Q8LPB4 25-1021, N-linked oligosaccharide chains of approximately 10 kD (cleaved by PNGase F)); assay: affinity chromatography on [Lys5]PSK-Sepharose, elution with PSK, SDS-PAGE
T2 construct: Assayed in membrane fractions of carrot cells (sense transformants overexpressing the ORF; control cells with the endogenous protein) or solubilized from carrot NC cell microsomal membranes; also called phytosulfokine receptor; 120-kD protein
T2 sequence: T1 sequence (Q8LPB4 25-1021)
Procedure: Carrot microsomal membranes (1,200 mg protein) were solubilized in 320 ml of buffer containing 20 mM HEPES-KOH (pH 7.5), 50 mM KCl, and 1.0% Triton X-100 (buffer A). Solubilized materials were centrifuged at 100,000 g for 30 min at 4° C., and supernatants were applied to the [Lys⁵]PSK-Sepharose column (5.0 ml) at a flow rate of 0.5 ml/min using the AKTA prime chromatography system (Amersham Pharmacia Biotech). After washing with 50 ml of buffer containing 20 mM HEPES-KOH (pH 7.5), 50 mM KCl, and 0.1% Triton X-100 (buffer B), the column was eluted with 15 ml of 1.0 mg/ml PSK in buffer B. The eluates were added to a 1.0-ml column of Macro-Prep Ceramic Hydroxyapatite Type I (Bio-Rad laboratories) at a flow rate of 0.5 ml/min at 4° C. The column was washed with 20 ml of buffer B and eluted with a 18-ml gradient of KH₂PO₄ (0 to 400 mM) in buffer B. Active fractions (12 ml), as determined by [³H]PSK binding assay, were concentrated by ultrafiltration (Ultrafree-15 with Biomax-10 membranes, Millipore) and analyzed by SDS-PAGE using 7.5% gels (Y. Matsubayashi, Y. Sakagami, Eur. J. Biochem. 262, 666 (1999)).
The PSK-binding proteins were purified with [Lys⁵] PSK-Sepharose column. The purified proteins were further purified by hydroxyapatite column chromatography, concentrated and subjected to SDS-PAGE and Nile red staining.

[7] = membrane fractions of control cells (binary vector alone)
[8] = membrane fractions of sense transformant

Molecule: CC[C@H](C)[C@H](NC(=O)[C@@H](N)Cc1ccc(OS(=O)(=O)O)cc1)C(=O)N[C@@H](Cc1ccc(OS(=O)(=O)O)cc1)C(=O)N[C@H](C(=O)N[C@@H](CCC(N)=O)C(=O)O)[C@@H](C)O [PSK, phytosulfokine] (H-[sY]I[sY]TQ-OH; N-terminus and C-terminus assumed)
- callus growth in response to PSK, compared with control cells [1]: accelerated growth
- inhibition of binding of [3H]PSK to the membrane fraction of the sense transformant [2]: strongly inhibited
- Bmax (maximum number of binding sites) [3, 7]: 34±2 fmol per mg of membrane protein
- Kd [3, 7]: 4.8 ± 1.1 nM
- Bmax (maximum number of binding sites) [3, 8]: 570±18 fmol per mg of membrane protein
- Kd [3, 8]: 4.1 ± 0.5 nM

Molecule: [1-4]PSK: less active analog of PSK (YIYT)
- inhibition of binding of [3H]PSK to the membrane fraction of the sense transformant [2]: less strongly inhibited

Molecule: phytosulfokine (PSK) (peptide)
- Bmax (fmol per mg of membrane protein) [4]: 34
- Bmax (fmol per mg of membrane protein) [5]: 570

Molecule: [sY]I[sY]TK([Ahx-Ahx-Ahx-Sepharose]) (also: Lys5 side chain coupled via Ahx spacer to Sepharose) [[Lys5]PSK-Sepharose]
- binding result [6]: binds
